Here are results for eight compounds from patent US6011058A, “Seco-cholestane derivatives and methods of making the same” (Georgia Tech Research Corporation, priority 1998, dated 2000).

Converted amounts (≈) assume the structure as drawn. “Also recorded” adds a separate entry of the source. Like-named read-outs stand apart in the source and are kept apart here.

Assay [1] concerns HT-29 human colon cancer cells. Kind of assay: Inhibition of HT-29 colon carcinoma cell growth, soft agarose colony-forming assay. It is filed as cell-based. Particulars: HT-29, 168 h, continuous drug exposure over 7 days, read-out: IC50, proliferation of HT-29 colon cancer cells. How it is done: (§1) HT-29 human colon cancer cells and A549 human lung adenocarcinoma cells were purchased from the American Tissue Type Collection (Rockville, Md.). The cell were maintained in Dulbecco's modified Eagle's media (DMEM) containing 10% fetal bovine serum and harvested with 0.05% trypsin and 0.5 mM EDTA before becoming confluent.
Compounds 6 and 8 prepared as discussed in the preceding examples were also evaluated for potency as inhibitors of colon cancer cell lines (HT-29). Inhibition of HT-29 colon carcinoma cell growth by compounds 6 and 8 was measured in the soft agarose colony-forming assay with continuous drug exposure over 7 days as previously described. Alley M. C. et al., Activation and inactivation of cancer chemotherapeutic agents by rat heptocytes cocultured with human tumor cell lines, Cancer Res 44:549 (1984). Briefly, soft-agarose culture was performed in 35-mm culture dishes contained a base layer consisting of 0.5 ml of standard culture medium with 0.5% agarose. […] Cell lines forming a sufficient number of detectable colonies were analyzed following 7 days of incubation. Viable colonies were stained using metabolizable tetrazolium salt, and analyzed as described previously. […]

For assay [2], the target named is T1, glutathione S-transferase (GST) fusion protein containing the full length sequence for human cdc25A (Homo sapiens, UniProt P30304).
T1 construct: made in house; host or cells: Escherichia coli
T1 sequence (P30304 1-524): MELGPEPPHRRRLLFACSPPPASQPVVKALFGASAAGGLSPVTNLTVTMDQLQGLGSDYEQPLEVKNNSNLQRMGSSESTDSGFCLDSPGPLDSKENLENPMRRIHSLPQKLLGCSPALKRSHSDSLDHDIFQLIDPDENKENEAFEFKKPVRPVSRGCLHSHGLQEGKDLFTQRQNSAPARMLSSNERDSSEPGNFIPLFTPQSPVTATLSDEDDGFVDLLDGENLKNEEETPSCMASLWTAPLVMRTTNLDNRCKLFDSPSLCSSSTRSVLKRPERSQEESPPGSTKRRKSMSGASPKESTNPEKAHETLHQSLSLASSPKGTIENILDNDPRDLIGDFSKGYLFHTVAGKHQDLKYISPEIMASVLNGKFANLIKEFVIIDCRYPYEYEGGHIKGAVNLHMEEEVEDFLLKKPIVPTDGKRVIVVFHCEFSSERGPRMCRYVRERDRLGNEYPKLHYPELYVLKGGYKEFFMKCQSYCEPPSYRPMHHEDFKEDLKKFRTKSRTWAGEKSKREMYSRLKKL
Briefly: Inhibition of CDC25A phosphatase (fluorescein diphosphate substrate). It is filed as biochemical. Particulars: for IC50: 10 mM dithiothreitol, fluorescein diphosphate substrate, read-out: Approximate IC50 (concentration yielding 50% inhibition of cdc25A) (converted); for relative potency against CDC25A, vs the double bond unsaturated compounds in the series: compared with double bond unsaturated compound in this series. The source says:
Rice, R. L. et al., A targeted Library of Small-Molecule, Tyrosine, and Dual-Specificity Phosphatase Inhibitors Derived from a Rational Core Design and Random Side Chain Variation, Biochemistry, 1997, 36, 15965-15974. Briefly, the target enzyme for the assay was a glutathione S-transferase (GST) fusion protein containing the full length sequence for human cdc25A. The enzyme was expressed in Escherichia coli and purified by affinity chromatography over glutathione-agarose. Enzyme activity was measured under linear reaction conditions with fluorescein diphosphate as the substrate. Reactions were performed in the presence of 10 mM dithiothreitol to eliminate oxidant-type inhibitors from scoring as hits in this assay.

The subject of assay [3] is A549 human lung adenocarcinoma cells. Briefly: Clonogenic assay, inhibition of growth of lung adenocarcinoma (A549) cells. It is filed as cell-based. How it is done:
as §1
Compound 6 prepared as discussed in the preceding examples were also evaluated for potency as inhibitors of the growth of lung adenocarcinoma cell lines. The effect of compound 6 was assessed with a clonogenic assay. In brief, A549 cells in log-phase growth were harvested, resuspended in fresh growth media and plated in triplicate in 60 mm dishes at cell concentrations estimated to yield 20-100 colonies per dish following treatment. Four hours after plating, cells were either exposed to compound 6 for one day followed by a wash and culture in fresh medium for 11 days (dotted line), or continuously exposed to this compound for 12 days (solid line). Cells were fixed and stained with Coomassie Blue at the end of the 12th day. Colonies with greater than 50 cells were scored.

In the case of `C=C(CC/C=C\C#N)[C@H]1CC[C@]2(C)[C@@H]([C@H](C)CCCC(C)C)CC[C@H]2[C@@H]1CC(=O)O` [Compound 8], the IC50 in assay [1] was 4.8 mg/L (≈ 11.6 µM); in assay [2] it was 10.6 µM.

Turning to `C=C(CCCCC#N)[C@H]1CC[C@]2(C)[C@@H]([C@H](C)CCCC(C)C)CC[C@H]2[C@@H]1CC(=O)O` [Compound 13], in assay [2], the IC50 is 2.17 µM and the “relative potency against CDC25A, vs the double bond unsaturated compounds in the series” value is recorded as “much more potent”.

As for `C/C(=C/C/C=C\C#N)[C@H]1CC[C@]2(C)[C@@H]([C@H](C)CCCC(C)C)CC[C@H]2[C@@H]1CC(=O)O` [Compound 9], in assay [2], the IC50 was more than 24.2 µM.

For the compound `CC(C)CCC[C@@H](C)[C@H]1CC[C@H]2[C@@H]3CC(=O)O[C@](C)(CCCCC#N)[C@H]3CC[C@]12C` [Compound 15], in assay [2], the IC50 is 2.17 µM and the “relative potency against CDC25A, vs the double bond unsaturated compounds in the series” value was “much more potent”.

As for `CC(C)CCC[C@@H](C)[C@H]1CC[C@H]2[C@@H]3CC(=O)O[C@@](C)(CC/C=C\C#N)[C@H]3CC[C@]12C` [Compound 7], the IC50 in assay [2] is more than 121 µM. Moreover, the “relative activity against CDC25A, vs 10R isomer compound 6” value in assay [2] (10S vs 10R isomer, compound 6) is on record as “much less active”.

Regarding `C/C(=C\C/C=C\C#N)[C@H]1CC[C@]2(C)[C@@H]([C@H](C)CCCC(C)C)CC[C@H]2[C@@H]1CC(=O)O` [Compound 10], the IC50 in assay [2] is 24.2 µM.

On to `CC(C)CCC[C@@H](C)[C@H]1CC[C@H]2[C@@H]3CC(=O)O[C@](C)(CC/C=C\C#N)[C@H]3CC[C@]12C` [Compound 6], for which the IC50 in assay [3] (A549, 288 h, 12-day continuous exposure, read-out: concentration reducing number of A549 colonies per dish 50%) was 7 µM; in assay [3] (A549, one day exposure, wash, then fresh medium for 11 days, read-out: concentration giving 50% reduction of the tumor cell colony number per dish), 37 µM; in assay [1], 5 mg/L (≈ 12.1 µM); in assay [2], 14.5 µM.

As to “3-actoxy-5, 6-seco-5-oxo-pregnen-6-oic acid [reference compound]”, the “inhibitory activity against CDC25A phosphatase” value in assay [2] (negative control) was “no inhibitory activity; also recorded: lost its activity”.
